How the values were obtained:
HCT116 MTAP−/− = assay: Inhibition of cellular proliferation, 4 days, Cell Titer Glo, HCT116 MTAP−/−; type: cell-based; settings: Homo sapiens, HCT-116, 96 h, IC50 bin with Max Inh., read-out: 4 Day Relative Growth Inhibition (MTAP −/−)
Outline: (§1)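 IC50 derived from blank-corrected ATP luminescence (Cell Titer Glo) expressed relative to within-plate 0.2% DMSO wells. Compound, as a 10-point 3-fold series, was added 24 h after seeding the MTAP+/+ or MTAP−/− HCT116 cells and incubated 4 days at 37° C./5% CO2.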

HCT116 MTAP+/+ = assay: Inhibition of cellular proliferation, 4 days, Cell Titer Glo, HCT116 MTAP+/+; type: cell-based; settings: Homo sapiens, HCT-116, 96 h, IC50 bin with Max Inh., read-out: 4 Day Relative Growth Inhibition (MTAP +/+)
Outline: as §1

MAT2A homodimer = target: T1, MAT2A homodimer (Homo sapiens, UniProt P31153); assay: MAT2A inhibition (biochemical, liberated phosphate, PiColorLock Gold); settings: recombinant MAT2A homodimer; IC50 bin with Max Inh.; read-out: Enzyme Inhibition Bin
T1 construct: inferred from Ni sepharose purification with imidazole elution; made in house; host or cells: Sf9 insect cells, baculovirus (Bac to Bac, pFASTBAC1)
Outline: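 Enzyme at 4 μg/mL and compound equilibrated 60 min at 25 °C, then 60 min reaction after adding substrate mix (500 μM ATP, 400 μM methionine). Released phosphate quantified by colorimetric kit against a phosphate standard curve to give IC50. Secondary format used 1 μg/mL enzyme with 5 h incubation.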

[1] = tested on: SAM in HCT116 human colon carcinoma cell line with MTAP gene deleted (MTAP −/−); assay: Cellular assay of target engagement (SAM), LC-MS/MS, 72 hrs; type: cell-based; settings: HCT-116, IC50 bin with Max Inh., read-out: Cell 72 h SAM Inhibition (MTAP −/−)
Outline: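 SAM levels were quantified by LC-MS/MS (m/z 399.2→250.1, d3-SAM internal standard) from cold methanol/acetic acid extracts, yielding IC50. Compound was applied as a 10-point 3-fold series for 72 hrs to MTAP −/− HCT116 cells seeded 24 hours before.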

T1 sequence (P31153 whole entry): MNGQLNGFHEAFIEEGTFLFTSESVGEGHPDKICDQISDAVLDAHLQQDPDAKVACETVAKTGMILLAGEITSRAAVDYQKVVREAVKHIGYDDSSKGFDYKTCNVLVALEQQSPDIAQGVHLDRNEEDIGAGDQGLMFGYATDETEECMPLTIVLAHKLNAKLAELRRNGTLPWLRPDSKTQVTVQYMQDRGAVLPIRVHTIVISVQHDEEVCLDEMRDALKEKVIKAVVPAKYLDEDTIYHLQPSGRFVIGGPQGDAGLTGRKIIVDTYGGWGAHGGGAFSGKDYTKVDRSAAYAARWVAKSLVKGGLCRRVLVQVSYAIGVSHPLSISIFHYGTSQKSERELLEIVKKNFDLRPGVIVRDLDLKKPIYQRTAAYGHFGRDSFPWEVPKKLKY

SMILES | IC50 (HCT116 MTAP−/−) [nM] | IC50 (HCT116 MTAP+/+) [nM] | IC50 (MAT2A homodimer) [nM] | IC50 [1] [nM]
O=c1c(-c2ccc(OC(F)F)cc2)c2c(ccn2CC2CC2)nn1-c1ccc2ncsc2c1 [Example 224, 2-(benzo[d]thiazol-6-yl)-5-(cyclopropylmethyl)-4-(4-(difluoromethoxy)phenyl)-2,5-dihydro-3H-pyrrolo[3,2-c]pyridazin-3-one] | < 100 | 100 to 1000 | < 100 | < 100
[2H]C([2H])([2H])Oc1ccc(-c2c(=O)n(-c3ccc4nn(C)cc4c3)nc3c(C)nn(CC4CC4)c23)cc1 [Example 216, 1-(cyclopropylmethyl)-7-(4-(methoxy-d3)phenyl)-3-methyl-5-(2-methyl-2H-indazol-5-yl)-1,5-dihydro-6H-pyrazolo[4,3-c]pyridazin-6-one] | < 100 | 100 to 1000 | < 100 | < 100
Cc1nn(CC2CC2)c2c(-c3ccc(C4CC4)cc3)c(=O)n(-c3ccc4nn(C)cc4c3)nc12 [Example 213, 1-(cyclopropylmethyl)-7-(4-cyclopropylphenyl)-3-methyl-5-(2-methyl-2H-indazol-5-yl)-1,5-dihydro-6H-pyrazolo[4,3-c]pyridazin-6-one] | < 100 | > 1000 | < 100 | < 100
Cn1nc2ccc(-n3nc4ccn(CC5CC5)c4c(-c4ccc(C5CC5)nc4)c3=O)cc2c1C(F)(F)F [Example 241, 5-(cyclopropylmethyl)-4-(6-cyclopropylpyridin-3-yl)-2-(2-methyl-3-(trifluoromethyl)-2H-indazol-5-yl)-2,5-dihydro-3H-pyrrolo[3,2-c]pyridazin-3-one] | < 100 | > 1000 | < 100 | < 100
CNC(=O)c1cn(CC2CC2)c2c(-c3ccc(C4CC4)cc3)c(=O)n(-c3ccc4nn(C)cc4c3)nc12 [Example 167, 5-(cyclopropylmethyl)-4-(4-cyclopropylphenyl)-N-methyl-2-(2-methyl-2H-indazol-5-yl)-3-oxo-3,5-dihydro-2H-pyrrolo[3,2-c]pyridazine-7-carboxamide] | < 100 | < 100 | < 100 | < 100
Cc1cn(CC2CC2)c2c(-c3ccc(C4CC4)nc3)c(=O)n(-c3ccc4nn(C)cc4c3)nc12 [Example 234, 5-(cyclopropylmethyl)-4-(6-cyclopropylpyridin-3-yl)-7-methyl-2-(2-methyl-2H-indazol-5-yl)-2,5-dihydro-3H-pyrrolo[3,2-c]pyridazin-3-one] | < 100 | < 100 | < 100 | < 100
Cc1ccc(-c2c(=O)n(-c3ccc4nn(C)cc4c3)nc3c(C)nn(CC4CC4)c23)cn1 [Example 217, 1-(cyclopropylmethyl)-3-methyl-5-(2-methyl-2H-indazol-5-yl)-7-(6-methylpyridin-3-yl)-1,5-dihydro-6H-pyrazolo[4,3-c]pyridazin-6-one] | < 100 | > 1000 | < 100 | < 100
Cn1cc2cc(-n3nc4c(C#N)cn(CCC(F)(F)F)c4c(-c4ccc(C5CC5)nc4)c3=O)ccc2n1 [Example 109, 4-(6-cyclopropylpyridin-3-yl)-2-(2-methyl-2H-indazol-5-yl)-3-oxo-5-(3,3,3-trifluoropropyl)-3,5-dihydro-2H-pyrrolo[3,2-c]pyridazine-7-carbonitrile] | 100 to 1000 | > 1000 | < 100 | 100 to 1000
Cn1cc2cc(-n3nc4c(C#N)cn(CC(F)(F)F)c4c(-c4ccc(C5CC5)nc4)c3=O)ccc2n1 [Example 133, 4-(6-cyclopropylpyridin-3-yl)-2-(2-methyl-2H-indazol-5-yl)-3-oxo-5-(2,2,2-trifluoroethyl)-3,5-dihydro-2H-pyrrolo[3,2-c]pyridazine-7-carbonitrile] | 100 to 1000 | > 1000 | < 100 | 100 to 1000
Cn1cc2cc(-n3nc4ncn(CC5CC5)c4c(-c4ccc(OC(F)F)cc4)c3=O)ccc2n1 [Example 186, 5-(cyclopropylmethyl)-4-[4-(difluoromethoxy)phenyl]-2-(2-methyl-2H-indazol-5-yl)-2H,3H,5H-imidazo[4,5-c]pyridazin-3-one] | < 100 | 100 to 1000 | < 100 | < 100
Cc1nc2ccc(-n3nc4c(C#N)cn(CC5CC5)c4c(-c4ccc(C(F)F)nc4)c3=O)cc2n1C [Example 147, 5-(cyclopropylmethyl)-4-(6-(difluoromethyl)pyridin-3-yl)-2-(1,2-dimethyl-1H-benzo[d]imidazol-6-yl)-3-oxo-3,5-dihydro-2H-pyrrolo[3,2-c]pyridazine-7-carbonitrile] | < 100 | 100 to 1000 | < 100 | < 100
Cc1nc2nn(-c3ccc4nn(C)cc4c3)c(=O)c(-c3ccc(OC(F)F)cc3)c2n1CC1CC1 [Example 191, 5-(cyclopropylmethyl)-4-(4-(difluoromethoxy)phenyl)-6-methyl-2-(2-methyl-2H-indazol-5-yl)-2,5-dihydro-3H-imidazo[4,5-c]pyridazin-3-one] | < 100 | > 1000 | < 100 | < 100
Cc1ccc(-c2c(=O)n(-c3ccc4nn(C)cc4c3)nc3c(C(F)(F)F)cn(CC4CC4)c23)cn1 [Example 258, 5-(cyclopropylmethyl)-2-(2-methyl-2H-indazol-5-yl)-4-(6-methylpyridin-3-yl)-7-(trifluoromethyl)-2,5-dihydro-3H-pyrrolo[3,2-c]pyridazin-3-one] | < 100 | 100 to 1000 | < 100 | < 100
Cn1cc2cc(-n3nc4ccn(CC5CC5)c4c(-c4ccc(CO)nc4)c3=O)ccc2n1 [Example 157, 5-(cyclopropylmethyl)-4-(6-(hydroxymethyl)pyridin-3-yl)-2-(2-methyl-2H-indazol-5-yl)-2,5-dihydro-3H-pyrrolo[3,2-c]pyridazin-3-one] | < 100 | 100 to 1000 | < 100 | < 100
[2H]C([2H])([2H])Oc1ccc(-n2nc3c(C#N)cn(CC4CC4)c3c(-c3ccc(C4CC4)nc3)c2=O)cc1 [Example 124, 5-(cyclopropylmethyl)-4-(6-cyclopropylpyridin-3-yl)-2-(4-(methoxy-d3)phenyl)-3-oxo-3,5-dihydro-2H-pyrrolo[3,2-c]pyridazine-7-carbonitrile] | 100 to 1000 | > 1000 | < 100 | < 100
Cn1cc2cc(-n3nc4c(C#C[Si](C)(C)C)cn(CC5CC5)c4c(-c4ccc(C5CC5)nc4)c3=O)ccc2n1 [Example 243, 5-(cyclopropylmethyl)-4-(6-cyclopropylpyridin-3-yl)-2-(2-methyl-2H-indazol-5-yl)-7-((trimethylsilyl)ethynyl)-2,5-dihydro-3H-pyrrolo[3,2-c]pyridazin-3-one] | < 100 | > 1000 | < 100 | < 100
CNC(=O)c1cn(CC2CC2)c2c(-c3ccc(OC)cc3)c(=O)n(-c3ccc4nn(C)cc4c3)nc12 [Example 176, 5-(cyclopropylmethyl)-4-(4-methoxyphenyl)-N-methyl-2-(2-methyl-2H-indazol-5-yl)-3-oxo-3,5-dihydro-2H-pyrrolo[3,2-c]pyridazine-7-carboxamide] | < 100 | 100 to 1000 | < 100 | < 100
N#Cc1cn(CC2CC2)c2c(-c3ccc(C4CC4)nc3)c(=O)n(-c3ccc4nn(CC5CC5)cc4c3)nc12 [Example 160, 5-(cyclopropylmethyl)-2-(2-(cyclopropylmethyl)-2H-indazol-5-yl)-4-(6-cyclopropylpyridin-3-yl)-3-oxo-3,5-dihydro-2H-pyrrolo[3,2-c]pyridazine-7-carbonitrile] | < 100 | 100 to 1000 | < 100 | < 100
COc1ccc(-c2c(=O)n(-c3ccc4nn(C)cc4c3)nc3c(C)nn(CC4CC4)c23)cc1 [Example 214, 1-(cyclopropylmethyl)-7-(4-methoxyphenyl)-3-methyl-5-(2-methyl-2H-indazol-5-yl)-1,5-dihydro-6H-pyrazolo[4,3-c]pyridazin-6-one] | < 100 | 100 to 1000 | < 100 | < 100
[2H]C([2H])([2H])Oc1ccc(-c2c(=O)n(-c3ccc4nn(C)cc4c3)nc3ncn(CC4CC4)c23)cc1 [Example 194, 5-(cyclopropylmethyl)-4-(4-(methoxy-d3)phenyl)-2-(2-methyl-2H-indazol-5-yl)-2,5-dihydro-3H-imidazo[4,5-c]pyridazin-3-one] | < 100 | 100 to 1000 | < 100 | < 100
Cn1cc2cc(-n3nc4ccn(CC5CC5)c4c(-c4ccc(C#N)nc4)c3=O)ccc2n1 [Example 153, 5-(5-(cyclopropylmethyl)-2-(2-methyl-2H-indazol-5-yl)-3-oxo-3,5-dihydro-2H-pyrrolo[3,2-c]pyridazin-4-yl)picolinonitrile] | > 1000 | > 1000 | 100 to 1000 | 100 to 1000
